According to ChEMBL document CHEMBL6109124, “Identification of effective anti-osteosarcoma agents via screening of an in-house NQO1-targeted compound library” (Bioorg Med Chem, 2025):
The source made the active and inactive calls. No cut-off for these calls is given here.

Legend:
HOS-TE85 [1] = experiment: Induction of apoptosis in human MNNG cells assessed as necrotic cells at 1 uM measured after 48 hrs by Alexa Fluor 488 Annexin V/propidium iodide staining based flow cytometry (reference value: 0.04%); assay type: functional
HOS-TE85 [2] = experiment: Induction of apoptosis in human MNNG cells assessed as late apoptotic cells at 2.5 uM measured after 48 hrs by Alexa Fluor 488 Annexin V/propidium iodide staining based flow cytometry (reference value: 0.51%); assay type: functional
[3] = Toxicity in human MNNG cell xenografted Balb/c mouse assessed as effect on heart at 15 to 45 mg/kg, iv administered every 2 days for 3 weeks and measured post last dose by H and E staining based microscopy; assay type: organism-based; conditions: in vivo, 504 h, dose 15-45 mg/kg, time 21 day
HOS-TE85 [4] = experiment: Cell cycle arrest in human MNNG cells assessed as accumulation of cells at G0/G1 phase at 1 uM measured after 24 hrs by propidium iodide staining based flow cytometry (reference value: 51.4%); assay type: functional
HOS-TE85 [5] = experiment: Cytotoxicity against human MNNG cells assessed as cell growth inhibition at 1 uM measured after 72 hrs by MTT assay relative to control; assay type: functional; conditions: read-out: GI
HOS-TE85 [6] = experiment: Cell cycle arrest in human MNNG cells assessed as accumulation of cells at G2/M phase at 1 uM measured after 24 hrs by propidium iodide staining based flow cytometry (reference value: 39.4%); assay type: functional
HOS-TE85 [7] = experiment: Antitumor activity against human MNNG cells xenografted in Balb/c mouse assessed as tumor growth inhibition at 30 mg/kg, iv administered every 2 days for 3 weeks and measured daily during compound dosing relative to control; assay type: functional; conditions: HOS-TE85, 504 h, time 21 day, read-out: TGI
HOS-TE85 [8] = experiment: Induction of apoptosis in human MNNG cells assessed as necrotic cells at 2.5 uM measured after 48 hrs by Alexa Fluor 488 Annexin V/propidium iodide staining based flow cytometry (reference value: 0.04%); assay type: functional
HOS-TE85 [9] = experiment: Induction of apoptosis in human MNNG cells assessed as viable cells at 2.5 uM measured after 48 hrs by Alexa Fluor 488 Annexin V/propidium iodide staining based flow cytometry (reference value: 98.8%); assay type: functional; conditions: read-out: Activity
HOS-TE85 [10] = experiment: Cell cycle arrest in human MNNG cells assessed as accumulation of cells at G2/M phase at 5 uM measured after 24 hrs by propidium iodide staining based flow cytometry (reference value: 39.4%); assay type: functional
HOS-TE85 [11] = experiment: Induction of reactive oxygen species generation in human MNNG cells measured after 3 hrs by DCFH-DA probe based fluorescence assay; assay type: functional, cell-based; conditions: dose 1-10 µM
HOS-TE85 [12] = experiment: Induction of apoptosis in human MNNG cells assessed as viable cells at 10 uM measured after 48 hrs by Alexa Fluor 488 Annexin V/propidium iodide staining based flow cytometry (reference value: 98.8%); assay type: functional; conditions: read-out: Activity
HOS-TE85 [13] = experiment: Cell cycle arrest in human MNNG cells assessed as accumulation of cells at G2/M phase at 2.5 uM measured after 24 hrs by propidium iodide staining based flow cytometry (reference value: 39.4%); assay type: functional
HOS-TE85 [14] = experiment: Antitumor activity against iv dosed human MNNG cells xenografted in Balb/c mouse assessed as reduction in tumor cell proliferation administered every 2 days for 3 weeks and measured post last dose by Ki-67 staining based assay; assay type: functional, organism-based; conditions: dose 15-45 mg/kg, time 21.0 day
[15] = Toxicity in human MNNG cell xenografted Balb/c mouse assessed as effect on spleen at 15 to 45 mg/kg, iv administered every 2 days for 3 weeks and measured post last dose by H and E staining based microscopy; assay type: organism-based; conditions: in vivo, 504 h, dose 15-45 mg/kg, time 21 day
[16] = Selectivity index, ratio of IC50 for cytotoxicity against HUVEC to IC50 for cytotoxicity against human MNNG cells; assay type: toxicity, cell-based; conditions: HUVEC and human MNNG cells, read-out: Ratio IC50
HOS-TE85 [17] = experiment: Cell cycle arrest in human MNNG cells assessed as accumulation of cells at G0/G1 phase at 5 uM measured after 24 hrs by propidium iodide staining based flow cytometry (reference value: 51.4%); assay type: functional
HOS-TE85 [18] = experiment: Cell cycle arrest in human MNNG cells assessed as accumulation of cells at S phase at 5 uM measured after 24 hrs by propidium iodide staining based flow cytometry (reference value: 39.4%); assay type: functional
HOS-TE85 [19] = experiment: Induction of apoptosis in human MNNG cells assessed as necrotic cells at 10 uM measured after 48 hrs by Alexa Fluor 488 Annexin V/propidium iodide staining based flow cytometry (reference value: 0.04%); assay type: functional
HOS-TE85 [20] = experiment: Cytotoxicity against human MNNG cells assessed as cell growth inhibition measured after 72 hrs by MTT assay; assay type: functional, cell-based; conditions: HOS-TE85, 72 h
[21] = Toxicity in human MNNG cell xenografted Balb/c mouse assessed as reduction in AST level at 15 to 45 mg/kg, iv administered every 2 days for 3 weeks and measured post last dose; assay type: organism-based; conditions: in vivo, 504 h, dose 15-45 mg/kg, time 21 day
[22] = Toxicity in human MNNG cell xenografted Balb/c mouse assessed as effect on lung at 15 to 45 mg/kg, iv administered every 2 days for 3 weeks and measured post last dose by H and E staining based microscopy; assay type: organism-based; conditions: in vivo, 504 h, dose 15-45 mg/kg, time 21 day
HOS-TE85 [23] = experiment: Cytotoxicity against human MNNG cells assessed as cell growth inhibition at 10 uM measured after 72 hrs by MTT assay relative to control; assay type: functional; conditions: read-out: GI
HOS-TE85 [24] = experiment: Antitumor activity against human MNNG cells xenografted in Balb/c mouse assessed as tumor growth inhibition at 45 mg/kg, iv administered every 2 days for 3 weeks and measured daily during compound dosing relative to control; assay type: functional; conditions: HOS-TE85, 504 h, time 21 day, read-out: TGI
HOS-TE85 [25] = experiment: Antitumor activity against human MNNG cells xenografted in Balb/c mouse assessed as tumor growth inhibition at 15 mg/kg, iv administered every 2 days for 3 weeks and measured daily during compound dosing relative to control; assay type: functional; conditions: HOS-TE85, 504 h, time 21 day, read-out: TGI

For `Cc1cc2c(cc1C)-c1oc(CN3CCOCC3)c(C)c1C(=O)C2=O`, the Activity (HOS-TE85 [1]) was 0.38%, the Activity (HOS-TE85 [2]) was 15.2% and the Activity [3] was “Non-toxic”. For the same compound, the Activity (HOS-TE85 [4]) was 49.7%, the inhibition of growth at 1 µM (HOS-TE85 [5]) was 38.2% and the Activity (HOS-TE85 [6]) was 9.2%. It also gave an inhibition in vivo at 30 mg/kg (HOS-TE85 [7]) of 63.4%, an Activity (HOS-TE85 [8]) of 0.55% and a viability at 2.5 µM (HOS-TE85 [9]) of 73.6%. The Activity (HOS-TE85 [10]) was 6.3%, the Activity (HOS-TE85 [11]) was “Dose-dependent-effect” and the viability at 10 µM (HOS-TE85 [12]) was 58.8%. The Activity (HOS-TE85 [13]) was 9.2%, the Activity (HOS-TE85 [14]) was “Active” and the Activity [15] was “Non-toxic”. For the same compound, the selectivity ratio [16] was 13.3, the Activity (HOS-TE85 [17]) was 55.9% and the Activity (HOS-TE85 [18]) was 37.8%. The Activity (HOS-TE85 [19]) was 0.42%, the IC50 (HOS-TE85 [20]) was 1.54 µM and the Activity [21] was “Toxic”. For the same compound, the Activity [22] was “Non-toxic”, the inhibition of growth at 10 µM (HOS-TE85 [23]) was 99.5% and the inhibition in vivo at 45 mg/kg (HOS-TE85 [24]) was 73.6%. It also gave an inhibition in vivo at 15 mg/kg (HOS-TE85 [25]) of 48.2%.
